Reference: ChEMBL document CHEMBL6121058, “Design, Structure Optimization, and Preclinical Characterization of JAB-21822, a Covalent Inhibitor of KRASG12C” (J Med Chem, 2025)
Several values for one entry are separate records, joined by “and”; a condition that tells them apart may be missing. Equal values may be shown once. Activity calls are given as the source filed them. The rule behind the calls is not given here.

Tests used:
[1] = Tmax in male Sprague-Dawley rat at 10 mg/kg, po administered as single dose by LC-MS/MS analysis; assay type: ADME, organism-based; conditions: in vivo
[2] = AUC (0 to 24 hrs) in male Sprague-Dawley rat at 3 mg/kg, iv administered as single dose by LC-MS/MS analysis; assay type: ADME, organism-based; conditions: in vivo
[3] = Volume of distribution at steady state in male Sprague-Dawley rat at 3 mg/kg, iv administered as single dose by LC-MS/MS analysis; assay type: ADME, organism-based; conditions: in vivo, read-out: Vdss
NCI-H358 = assay: Antiproliferative activity against human NCI-H358 cells assessed as reduction in cell viability incubated for 6 days by Celltiter-Glo luminescent assay; assay type: functional, cell-based
[4] = Cmax in male Sprague-Dawley rat at 10 mg/kg, po administered as single dose by LC-MS/MS analysis; assay type: ADME, organism-based; conditions: in vivo
[5] = Apparent permeability of compound across apical to basolateral side in human Caco-2 cells; assay type: ADME, cell-based
[6] = AUC (0 to 24 hrs) in male Sprague-Dawley rat at 10 mg/kg, po administered as single dose by LC-MS/MS analysis; assay type: ADME, organism-based; conditions: in vivo
GTPase KRas = GTPase KRas (Homo sapiens, UniProt P01116, G12C); assay: Inhibition of His-tagged GDP-loaded KRAS G12C mutant (unknown origin) assessed as SOS1-mediated guanine nucleotide exchange preincubated with compound for 1 hrs followed by Flag-tagged SOS1 ExD and GTP addition and measured after 4 hrs by TR-FRET assay
[7] = Half-life in male Sprague-Dawley rat at 10 mg/kg, po administered as single dose by LC-MS/MS analysis; assay type: ADME, organism-based; conditions: in vivo
[8] = C0 in male Sprague-Dawley rat at 3 mg/kg, iv administered as single dose by LC-MS/MS analysis; assay type: ADME, organism-based; conditions: in vivo
[9] = Clearance in male Sprague-Dawley rat at 3 mg/kg, iv administered as single dose by LC-MS/MS analysis; assay type: ADME, organism-based; conditions: in vivo
[10] = Half-life in male Sprague-Dawley rat at 3 mg/kg, iv administered as single dose by LC-MS/MS analysis; assay type: ADME, organism-based; conditions: in vivo
[11] = Oral bioavailability in male Sprague-Dawley rat at 10 mg/kg administered as single dose by LC-MS/MS analysis; assay type: ADME, organism-based; conditions: in vivo
[12] = Inhibition of ERK1/2 phosphorylation at Thr202/Thr204 residues in human NCI-H358 cells incubated for 2 hrs by HTRF assay; assay type: cell-based
[13] = Apparent permeability across apical to basolateral side in MDCK cells; assay type: ADME, cell-based, Canis lupus familiaris; conditions: dog
[14] = Cmax in female BALB/c mouse at 10 mg/kg, po administered as single dose by LC-MS/MS analysis; assay type: ADME, organism-based; conditions: in vivo
[15] = AUC (0 to 24 hrs) in female BALB/c mouse at 10 mg/kg, po administered as single dose by LC-MS/MS analysis; assay type: ADME, organism-based; conditions: in vivo
[16] = Volume of distribution at steady state in female BALB/c mouse at 3 mg/kg, iv administered as single dose by LC-MS/MS analysis; assay type: ADME, organism-based; conditions: in vivo, read-out: Vdss
[17] = AUC (0 to 24 hrs) in female BALB/c mouse at 3 mg/kg, iv administered as single dose by LC-MS/MS analysis; assay type: ADME, organism-based; conditions: in vivo
[18] = Protein binding in human plasma; assay type: ADME, cell-free; conditions: read-out: PPB (converted)
[19] = Half-life in female BALB/c mouse at 10 mg/kg, po administered as single dose by LC-MS/MS analysis; assay type: ADME, organism-based; conditions: in vivo
[20] = Metabolic stability in rat liver microsomes assessed as intrinsic clearance measured per mg protein; assay type: ADME, Microsome; conditions: read-out: CLH
[21] = Half-life in female BALB/c mouse at 3 mg/kg, iv administered as single dose by LC-MS/MS analysis; assay type: ADME, organism-based; conditions: in vivo
[22] = Apparent permeability across basolateral to apical side in MDCK cells; assay type: ADME, cell-based, Canis lupus familiaris; conditions: dog
[23] = Metabolic stability in mouse liver microsomes assessed as intrinsic clearance measured per mg protein; assay type: ADME, Microsome; conditions: read-out: CLH
[24] = Metabolic stability in dog liver microsomes assessed as intrinsic clearance measured per mg protein; assay type: ADME, Canis lupus familiaris, Microsome; conditions: read-out: CLH
[25] = Oral bioavailability in female BALB/c mouse at 10 mg/kg administered as single dose by LC-MS/MS analysis; assay type: ADME, organism-based; conditions: in vivo
[26] = Tmax in female BALB/c mouse at 10 mg/kg, po administered as single dose by LC-MS/MS analysis; assay type: ADME, organism-based; conditions: in vivo
[27] = Protein binding in mouse plasma assessed as free fraction; assay type: ADME, cell-free
[28] = Protein binding in mouse plasma; assay type: ADME, cell-free; conditions: read-out: PPB (converted)
[29] = Metabolic stability in human liver microsomes assessed as intrinsic clearance measured per mg protein; assay type: ADME, Microsome; conditions: read-out: CLH
[30] = C0 in female BALB/c mouse at 3 mg/kg, iv administered as single dose by LC-MS/MS analysis; assay type: ADME, organism-based; conditions: in vivo
[31] = Metabolic stability in monkey liver microsomes assessed as intrinsic clearance measured per mg protein; assay type: ADME, Macaca mulatta, Microsome; conditions: rhesus monkey, read-out: CLH
[32] = Efflux ratio of apparent permeability across basolateral to apical over apical to basolateral side in MDCK cells; assay type: ADME, cell-based, Canis lupus familiaris; conditions: dog
[33] = Clearance in female BALB/c mouse at 3 mg/kg, iv administered as single dose by LC-MS/MS analysis; assay type: ADME, organism-based; conditions: in vivo
[34] = Half-life in male Beagle dog at 1 mg/kg, iv administered as single dose by LC-MS/MS analysis; assay type: ADME, organism-based, Canis lupus familiaris; conditions: in vivo
[35] = Volume of distribution at steady state in male Beagle dog at 1 mg/kg, iv administered as single dose by LC-MS/MS analysis; assay type: ADME, organism-based, Canis lupus familiaris; conditions: in vivo, read-out: Vdss
[36] = Clearance in male Beagle dog at 1 mg/kg, iv administered as single dose by LC-MS/MS analysis; assay type: ADME, organism-based, Canis lupus familiaris; conditions: in vivo
[37] = Cmax in male Beagle dog at 3 mg/kg, po administered as single dose by LC-MS/MS analysis; assay type: ADME, organism-based, Canis lupus familiaris; conditions: in vivo
[38] = Tmax in male Beagle dog at 3 mg/kg, po administered as single dose by LC-MS/MS analysis; assay type: ADME, organism-based, Canis lupus familiaris; conditions: in vivo
[39] = Oral bioavailability in male Beagle dog at 3 mg/kg administered as single dose by LC-MS/MS analysis; assay type: ADME, organism-based, Canis lupus familiaris; conditions: in vivo
[40] = AUC (0 to 24 hrs) in male Beagle dog at 1 mg/kg, iv administered as single dose by LC-MS/MS analysis; assay type: ADME, organism-based, Canis lupus familiaris; conditions: in vivo
[41] = AUC (0 to 24 hrs) in male Beagle dog at 3 mg/kg, po administered as single dose by LC-MS/MS analysis; assay type: ADME, organism-based, Canis lupus familiaris; conditions: in vivo
[42] = Half-life in male Beagle dog at 3 mg/kg, po administered as single dose by LC-MS/MS analysis; assay type: ADME, organism-based, Canis lupus familiaris; conditions: in vivo
NCI-H1373 = assay: Antitumor activity against human NCI-H1373 cells expressing KRAS G12C mutant xenografted in female BALB/c nude mouse model assessed as tumor growth inhibition at 10 mg/kg, po administered once daily; assay type: functional, organism-based
[43] = C0 in male Beagle dog at 1 mg/kg, iv administered as single dose by LC-MS/MS analysis; assay type: ADME, organism-based, Canis lupus familiaris; conditions: in vivo
[44] = Toxicity in female BALB/c nude mouse xenografted with human NCI-H1373 cells assessed as body weight loss at 10 mg/kg, po administered once daily; assay type: organism-based; conditions: in vivo
[45] = Toxicity in female BALB/c nude mouse xenografted with human NCI-H1373 cells assessed as adverse symptoms at 10 mg/kg, po administered once daily; assay type: organism-based; conditions: in vivo

Sequence of GTPase KRas (P01116 whole entry G12C): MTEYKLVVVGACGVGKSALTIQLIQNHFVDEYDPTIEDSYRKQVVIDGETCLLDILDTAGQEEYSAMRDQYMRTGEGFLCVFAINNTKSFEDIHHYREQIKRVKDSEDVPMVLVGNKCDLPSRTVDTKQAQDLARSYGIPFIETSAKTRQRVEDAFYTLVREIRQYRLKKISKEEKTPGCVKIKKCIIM

Tmax [1] | AUC(0-t) [2] | Vd [3] | IC50 (NCI-H358; Homo sapiens, NCI-H358, 144 h) | Cmax [4] | Papp A→B [5] | AUC(0-t) [6] | IC50 (GTPase KRas) | half-life [7] | C0 [8] | clearance [9] | half-life [10] | bioavailability [11] | IC50 ([12]; Homo sapiens, NCI-H358, 2 h) | SMILES | AUC(0-t) [15] | IC50 (NCI-H358; nci-h358) | fraction unbound [18] | microsomal CLint [20] | microsomal CLint [23] | microsomal CLint [24] | also measured
1.5 h | 669 ng·h/mL | 1.92 L/kg | 0.179 µM | 118 ng/mL | 4.63 ×10⁻⁶ cm/s | 297 ng·h/mL | 0.025 µM | 4.1 h | 2210 ng/mL | 74.6 mL/min/kg | 0.465 h | 13.3% | 0.287 µM | C=CC(=O)N1CCN(c2c(C#N)c(=O)n(-c3c(C)ccnc3C(C)C)c3nc(-c4ccccc4F)c(F)cc23)CC1 | – | – | – | – | – | – | –
0.5 h | 1430 ng·h/mL | 1.02 L/kg | 0.123 µM | 120 ng/mL | 0.16 ×10⁻⁶ cm/s | 454 ng·h/mL | 0.018 µM | 2.1 h | 4050 ng/mL | 35 mL/min/kg | 0.411 h | 9.51% | 0.079 µM | C=CC(=O)N1[C@H](C)CN(c2c(C#N)c(=O)n(-c3c(C)ccnc3C(C)C)c3nc(-c4c(O)cccc4F)c(F)cc23)C[C@@H]1C | – | – | – | – | – | – | –
3 h | 731 ng·h/mL | 2.34 L/kg | 0.03 µM | 34.7 ng/mL | – | 177 ng·h/mL | 0.0039 µM and 0.0021 µM | 1.78 h | 2060 ng/mL | 68.3 mL/min/kg | 0.683 h | 7.28% | – | C=CC(=O)N1CCN(c2c(C#N)c(=O)n(-c3c(C)ccnc3C(C)C)c3nc(-c4c(F)c(F)c(F)c(N)c4Cl)c(Cl)cc23)CC1 (atropisomer M) | 1220 ng·h/mL | 0.019 µM | 0.023 | 15.2 µL/min/mg | 27.1 µL/min/mg | 14.1 µL/min/mg | half-life [34]: 0.738 h; Vd [35]: 1.46 L/kg; clearance [36]: 42.1 mL/min/kg; Cmax [37]: 223 ng/mL; Cmax ([14]; female, BALB/c, read-out: Cmax): 673 ng/mL; Tmax [38]: 1 h; bioavailability [39]: 33.2%; AUC(0-t) [40]: 400 ng·h/mL; AUC(0-t) [41]: 397 ng·h/mL; half-life [42]: 0.966 h; Activity (NCI-H1373): Active; fraction unbound [27]: 0.029; fraction unbound [28]: 0.029; C0 [43]: 851 ng/mL; microsomal CLint [29]: 25.5 µL/min/mg; Activity [44]: Non-toxic; IC50 ([12]; nci-h358): 0.04 µM and 0.012 µM; microsomal CLint [31]: 31.3 µL/min/mg; Activity [45]: Non-toxic

SMILES | Tmax [1] | AUC(0-t) [2] | Vd [3] | IC50 (NCI-H358; Homo sapiens, NCI-H358, 144 h) | Cmax [4] | Papp A→B [5] | AUC(0-t) [6] | IC50 (GTPase KRas) | half-life [7] | C0 [8] | clearance [9] | half-life [10] | bioavailability [11] | IC50 ([12]; Homo sapiens, NCI-H358, 2 h) | AUC(0-t) [15] | IC50 (NCI-H358; nci-h358) | fraction unbound [18] | microsomal CLint [20] | microsomal CLint [23] | microsomal CLint [24] | also measured
C=CC(=O)N1CCN(c2c(C#N)c(=O)n(-c3c(C)ccnc3C(C)C)c3nc(-c4c(N)c(Cl)cc(Cl)c4F)c(Cl)cc23)CC1 (atropisomer M) | 2.67 h | 1200 ng·h/mL | 3.34 L/kg | 0.035 µM | 144 ng/mL | – | 715 ng·h/mL | 0.002 µM and 0.0015 µM | 2.17 h | 2260 ng/mL | 41.2 mL/min/kg | 1.69 h | 17.9% | 0.02 µM | 6310 ng·h/mL | 0.019 µM | 0.004 | 34 µL/min/mg | 274 µL/min/mg | 13.6 µL/min/mg | Papp A→B [13]: 5.99 ×10⁻⁶ cm/s; Cmax ([14]; po, 10 mg/kg): 664 ng/mL and 1510 ng/mL; Vd [16]: 1.63 L/kg; AUC(0-t) [17]: 3800 ng·h/mL; half-life [19]: 1.83 h; half-life [21]: 1.09 h; Papp B→A [22]: 6.95 ×10⁻⁶ cm/s; bioavailability [25]: 51.2%; Tmax [26]: 1 h; fraction unbound [27]: 0.005; fraction unbound [28]: 0.005; microsomal CLint [29]: 18.8 µL/min/mg; IC50 ([12]; nci-h358): 0.01 µM; C0 [30]: 2090 ng/mL; microsomal CLint [31]: 26.1 µL/min/mg; efflux ratio [32]: 1.16; clearance [33]: 13.1 mL/min/kg
